US10165778B2, “Method for controlling pests in soybean” (BASF SE, priority 2014, dated 2019)
Read-outs that look alike come from different tables or passages of the source.

Columns and labels:
Format in all cases: in vivo
[1] = test system: Orchid Thrips (Dichromothrips corbetti); experiment: B.2 floral-immersion test on orchid petals, adult thrips; details: 72 h, read-out: mortality in comparison with untreated controls
Method: B.2 Orchid Thrips (Dichromothrips corbetti)
Dichromothrips corbetti adults used for bioassay were obtained from a colony maintained continuously under laboratory conditions. For testing purposes, the test compound is diluted in a 1:1 mixture of acetone:water (vol:vol), plus Kinetic HV at a rate of 0.01% v/v.
Thrips potency of each compound was evaluated by using a floral-immersion technique. All petals of individual, intact orchid flowers were dipped into treatment solution and allowed to dry in Petri dishes. Treated petals were placed into individual re-sealable plastic along with about 20 adult thrips. All test arenas were held under continuous light and a temperature of about 28° C. for duration of the assay. After 3 days, the numbers of live thrips were counted on each petal. The percent mortality was recorded 72 hours after treatment.

[2] = test system: Brown Stink Bug (Euschistus heros); experiment: B.3 bean pod spray test, adults; details: 120 h, read-out: mortality in comparison with untreated controls
Method: B.3 Brown Stink Bug (Euschistus heros)
(§1) The active compound is dissolved at the desired concentration in a mixture of 1:1 (vol:vol) distilled water:acetone.
Fresh bean pods were placed in a transparent plastic cup and inoculated with ten adult stage individuals. Insects, food and inside of container are sprayed with 1 ml solution using an air brush. Treated cups were kept at about 25° C. Percent mortality was recorded after 5 days.

[3] = test system: Green Soldier Stink Bug (Nezara viridula); experiment: B.7 soil drench on lima bean plants, 2nd instar nymphs; details: read-out: mortality in comparison with untreated controls
Method: B.7 Green Soldier Stink Bug (Nezara viridula)
Lima Bean (Phaseolus lunatus, ‘Henderson Bush,’ Lot #—VR06650) plants were transplanted at the two true-leaf stage into 25.8 cm^2 pots filled with sifted (No. 10 sieve) North Carolina loamy sand soil. Pots were held in the greenhouse and watered daily until treatment. Three days after transplant, the compounds were dissolved in acetone and then diluted with water for a final concentration of 50% acetone. Treatments were applied as a drench in 1 ml solution per plant. Plants were held in an environmental chamber (25±2° C., 24 L) and watered as needed for the duration of the test.
Three days after treatment, plants were infested with five 2nd instar nymphs. Plants were covered with organza fabric bags to prevent escape. Four days after infestation, the number of live nymphs on each plant was recorded, and means were calculated for each treatment. The percent control was calculated as the percent mortality relative to the solvent blank.

[4] = test system: Green Soldier Stink Bug (Nezara viridula); experiment: B.1 soybean pod spray test, 3rd instar nymphs; details: 120 h, read-out: mortality in comparison with untreated controls
Method: B.1 Green Soldier Stink Bug (Nezara viridula)
The active compound is dissolved at the desired concentration in a mixture of 1:1 (vol:vol) distilled water:acetone. Surfactant (Kinetic HV) is added at a rate of 0.01% (vol/vol). The test solution is prepared at the day of use.
Soybean pods were placed in microwavable plastic cups lined with moist filter paper and inoculated with ten 3rd instar N. viridula. Using a hand atomizer, approximately 2 ml solution is sprayed into each cup. Treated cups were kept at about 28-29° C. and relative humidity of about 50-60%. Percent mortality was recorded after 5 days.

[5] = test system: Forest Shield Bug (Eysarcoris aeneus); experiment: B.4 peanut and soybean seed spray test, adults; details: 120 h, read-out: mortality in comparison with untreated controls
Method: B.4 Forest Shield Bug (Eysarcoris aeneus)
as §1
Row peanuts and soybean seeds were placed in a plastic cup and inoculated with ten adult stage individuals. Insects, food and inside of container are sprayed with 1 ml solution using an air brush. After drying, a water supply source will be placed in the cup and the cup closed with a screened lid. Treated cups were kept at about 20° C. Percent mortality was recorded after 5 days.

[6] = test system: Brown Stink Bug (Euschistus heros); experiment: B.6 sprayed soybean seedlings (Intacta and BMX-Potencia), adults; details: for mortality at 10 ppm: Euschistus heros; for mortality at 10 ppm / mortality (%) 1 D.A.A / mortality (%) 2 DAA / mortality (%) 6 DAA / mortality (Abbott %) 1 D.A.A / mortality (Abbott %) 2 DAA / mortality (Abbott %) 6 DAA: Ginkgolide A 100 ppm a.i, Bilobalide 10 ppm a.i; for efficacy on soybean plants with Bacillus thuringiensis toxin trait (INTACTA) versus without (BMX-POTENCIA): comparison of INTACTA with BMX-POTENCIA
Method: B.6 Brown Stink Bug (Euschistus heros)
as §1
Soybean seedlings of Intacta and BMX-Potencia with one pair of true leaves were sprayed with 2 ml solution using an airbrush. After dry, the plants in small pots were placed inside a transparent plastic cage and infested with 10 adults adult stage individuals. Treated cups were kept at about 25° C. Percent mortality was recorded after 1, 2, and 6 days after application.
• Corrected mortality according to Abbott, W. S., A method of computing the effectiveness of an insecticide, J. Econ. Entomal., 18 (1925) 265-267.

[7] = test system: Rice Leaf Bug (Trigonotylus caelestialium); experiment: B.5 sprayed wheat seedling test, 2nd and 3rd stage nymphs; details: 120 h, read-out: mortality in comparison with untreated controls
Method: B.5 Rice Leaf Bug (Trigonotylus caelestialium)
as §1
Small wheat seedlings in glass tubes were sprayed with 200 microliter/tube by air brush. After drying, ten 2nd and 3rd nymph stage individuals were released in the tube and the tube closed with a screened lid. Treated cups were kept at about 20° C. Percent mortality was recorded after 5 days.

[8] = test system: Green Soldier Stink Bug (Nezara viridula); experiment: B.8 lima bean seed treatment, 2nd instar nymphs; details: 0.063 mg ai/seed, infested ten days after treatment, read four days after infestation
Method: B.8 Green Soldier Stink Bug (Nezara viridula)
Pots (25.8 cm^2) were filled with a 1:1 mixture of sifted (No. 10 sieve) North Carolina loamy sand soil and play sand. Technical material was dissolved in DMSO in a 20 ml scintillation vial. A total application volume of 25 μl of solution was added to a 20 ml vial, ten lima bean seeds (P. lunatus) were added, and the vial was vortexed for 1 minute. Seeds were allowed to dry and planted at a depth of 2 cm later the same day. One seed was planted per pot. Pots were held in the greenhouse and watered daily until infestation.
Ten days after treatment, plants were infested with five 2nd instar nymphs. Plants were covered with organza fabric bags to prevent escape. Plants were held in an environmental chamber (25±2° C., 24 L) and watered as needed.
Four days after infestation, the number of live nymphs on each plant was recorded, and means were calculated for each treatment. The percent control was calculated as the percent mortality relative to the solvent blank.

CC(C)(C)[C@]1(O)C[C@@H]2OC(=O)C[C@@]23C(=O)O[C@@H]2OC(=O)[C@H](O)[C@]213 [Bilobalide, (3aS,5aR,8aS,9R,10aR)-9-tert-butyl-8,9-dihydroxydihydro-9H-furo[2,3-b]furo[3′,2′;2,3]cyclopenta[1,2-c]furan-2,4,7(3H,8H)-trione]
mortality at 500 ppm [1]: ≥ 75%
mortality at 100 ppm [2]: ≥ 75%
mortality at 300 g/ha [3]: ≥ 75%
mortality at 10 ppm [4]: ≥ 75%
mortality at 100 ppm [4]: ≥ 75%
mortality at 300 ppm [4]: ≥ 75%
mortality at 500 ppm [4]: ≥ 75%
mortality at 100 ppm [5]: ≥ 75%
mortality at 10 ppm ([6]; 24 h, read-out: mortality (%) 1 D.A.A, BMX - POTENCIA soybean, 1 day after application): 5%
mortality at 10 ppm ([6]; 24 h, read-out: mortality (%) 1 D.A.A, INTACTA soybean, 1 day after application): 7.5%
mortality at 10 ppm ([6]; 24 h, read-out: mortality (Abbott %) 1 D.A.A, BMX - POTENCIA soybean, corrected according to Abbott, 1 day after application): 2.6%
mortality at 10 ppm ([6]; 24 h, read-out: mortality (Abbott %) 1 D.A.A, INTACTA soybean, corrected according to Abbott, 1 day after application): 2.6%
mortality at 10 ppm ([6]; 48 h, read-out: mortality (%) 2 DAA, BMX - POTENCIA soybean, 2 days after application): 7.5%
mortality at 10 ppm ([6]; 48 h, read-out: mortality (%) 2 DAA, INTACTA soybean, 2 days after application): 20%
mortality at 10 ppm ([6]; 48 h, read-out: mortality (Abbott %) 2 DAA, BMX - POTENCIA soybean, corrected according to Abbott, 2 days after application): 2.6%
mortality at 10 ppm ([6]; 48 h, read-out: mortality (Abbott %) 2 DAA, INTACTA soybean, corrected according to Abbott, 2 days after application): 15.8%
mortality at 10 ppm ([6]; 144 h, read-out: mortality (%) 6 DAA, BMX - POTENCIA soybean, 6 days after application): 60%
mortality at 10 ppm ([6]; 144 h, read-out: mortality (%) 6 DAA, INTACTA soybean, 6 days after application): 72.5%
mortality at 10 ppm ([6]; 144 h, read-out: mortality (Abbott %) 6 DAA, BMX - POTENCIA soybean, corrected according to Abbott, 6 days after application): 50%
mortality at 10 ppm ([6]; 144 h, read-out: mortality (Abbott %) 6 DAA, INTACTA soybean, corrected according to Abbott, 6 days after application): 65.6%
efficacy on soybean plants with Bacillus thuringiensis toxin trait (INTACTA) versus without (BMX-POTENCIA) [6]: higher efficacy
mortality at 100 ppm [7]: ≥ 75%

C[C@@H]1C(=O)O[C@H]2C[C@@]34[C@H]5C[C@@H](C(C)(C)C)[C@]36[C@@H](OC(=O)[C@@H]6O)O[C@@]4(C(=O)O5)[C@]21O [Ginkgolide A]
mortality in comparison with untreated controls [8]: at least 75%
mortality (%) 1 D.A.A ([6]; BMX - POTENCIA soybean, 1 day after application): 10.0%
mortality (%) 2 DAA ([6]; BMX - POTENCIA soybean, 2 days after application): 10.0%
mortality (%) 6 DAA ([6]; BMX - POTENCIA soybean, 6 days after application): 57.5%
mortality (Abbott %) 1 D.A.A ([6]; BMX - POTENCIA soybean, corrected according to Abbott, 1 day after application): 7.7%
mortality (Abbott %) 2 DAA ([6]; BMX - POTENCIA soybean, corrected according to Abbott, 2 days after application): 5.3%
mortality (Abbott %) 6 DAA ([6]; BMX - POTENCIA soybean, corrected according to Abbott, 6 days after application): 46.9%
mortality (%) 1 D.A.A ([6]; INTACTA soybean, 1 day after application): 12.5%
mortality (%) 2 DAA ([6]; INTACTA soybean, 2 days after application): 20.0%
mortality (%) 6 DAA ([6]; INTACTA soybean, 6 days after application): 62.5%
mortality (Abbott %) 1 D.A.A ([6]; INTACTA soybean, corrected according to Abbott, 1 day after application): 7.9%
mortality (Abbott %) 2 DAA ([6]; INTACTA soybean, corrected according to Abbott, 2 days after application): 15.8%
mortality (Abbott %) 6 DAA ([6]; INTACTA soybean, corrected according to Abbott, 6 days after application): 53.1%
efficacy on soybean plants with Bacillus thuringiensis toxin trait (INTACTA) versus without (BMX-POTENCIA) [6]: higher efficacy
